Paper PMC10997755, “Discovery of a small-molecule inhibitor that traps Polθ on DNA and synergizes with PARP inhibitors” (Nature Communications, 2024)
Where “and” joins values, the source holds several entries; their conditions need not be identical. Identical values can stand only once.

How the values were obtained:
Polα = assay: Primer extension by recombinant Pols (selectivity); format: biochemical
Polθ-pol on DNA/RNA = molecular target: T1, Polθ-pol on DNA/RNA (Homo sapiens, UniProt O75417); assay: Relative rate of ddCMP addition on DNA/RNA; format: biochemical; conditions: for Average % Extension (Single nt) / % Extension (Single nt) / % Extension of Control: RNA template; for Average % Extension (Single nt) / % Extension (Single nt): 2uM RTX-161; for Average % Extension (Single nt): average of 3 trials; for % Extension (Single nt) / % Extension of Control: single trials 1-3; for % Extension of Control: 2uM RTX-161 relative to DMSO
T1 construct: purified recombinant human Polθ-pol (comprising amino acid residues 1792–2590); made in house
T1 sequence (O75417 1792-2590): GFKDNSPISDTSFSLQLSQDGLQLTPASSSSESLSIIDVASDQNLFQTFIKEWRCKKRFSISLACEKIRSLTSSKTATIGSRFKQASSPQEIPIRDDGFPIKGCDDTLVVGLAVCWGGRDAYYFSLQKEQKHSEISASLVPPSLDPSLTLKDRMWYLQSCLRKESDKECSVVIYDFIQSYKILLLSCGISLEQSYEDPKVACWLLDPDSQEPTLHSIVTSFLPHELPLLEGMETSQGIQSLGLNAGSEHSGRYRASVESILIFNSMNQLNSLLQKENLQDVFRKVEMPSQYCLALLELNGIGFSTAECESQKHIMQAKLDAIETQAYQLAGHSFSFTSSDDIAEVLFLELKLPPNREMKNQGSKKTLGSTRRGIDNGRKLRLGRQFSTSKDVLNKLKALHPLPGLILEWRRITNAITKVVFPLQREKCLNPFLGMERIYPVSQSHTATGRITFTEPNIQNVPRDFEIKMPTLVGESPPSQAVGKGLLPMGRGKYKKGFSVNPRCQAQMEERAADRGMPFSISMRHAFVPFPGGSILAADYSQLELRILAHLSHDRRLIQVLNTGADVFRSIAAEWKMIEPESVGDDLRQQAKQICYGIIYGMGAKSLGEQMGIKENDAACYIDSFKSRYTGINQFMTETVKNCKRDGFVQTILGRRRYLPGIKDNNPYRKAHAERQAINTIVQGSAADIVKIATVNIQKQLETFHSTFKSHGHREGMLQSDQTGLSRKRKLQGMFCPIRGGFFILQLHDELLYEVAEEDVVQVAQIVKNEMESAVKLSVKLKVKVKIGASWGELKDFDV
Description: Relative rate of Polθ-pol dAMP addition. The relative rates of dAMP incorporation by Polq-pol in the presence of DMSO or MC160385 with various concentrations of dATP were measured using the following primer extension assay in vitro. 2 nM or Polθ-pol was incubated with 5’ ^32P-γ-ATP labeled 100 nM primer-template (RP469D/RP486) in 1X buffer (25 mM TrisHCl pH 7.8, 0.01% NP40, 10% glycerol, 1 mM DTT, 10 mM MgCl2, 0.1 mg/ml BSA) at room temp. 2.5% DMSO, 7.5 nM or 12 nM of MC160385 was added. Reactions were than initiated by the addition of 20, 50, 100, 200, or 300 μM dATP at room temp. Aliquots of the reactions were removed and terminated by the addition of 50 mM EDTA at 3, 3.5, 4 and 5 min after the reaction was initiated. Radio-labeled DNA was then resolved via denaturing 20% PAGE and visualized by Typhoon PhosphorImager (GE Amersham). Rates of dAMP incorporation were calculated from % extension of the prime-template which was determined using ImageJ software. Relative rate of ddCMP addition on DNA/DNA and DNA/RNA. 25 nM nucleic acid DNA/DNA or DNA/RNA primer-template (RP559/RP702 or RP559/RP702R) was mixed with 1X reaction buffer (20 mM TrisHCl pH 7.5, 0.01% NP-40, 0.5 mM DTT, 10% glycerol, 0.1 mg/ml BSA, 10 mM MgCl2) in the presence of 250 μM ddCTP at room temp. Next, 2 μM RTx-161 or 2.5% DMSO was added. Reactions were initiated by the addition of 10 nM Polθ-pol. Reaction aliquots were removed and terminated by the addition of 50 mM EDTA at the indicated time points. Radio-labeled DNA was then resolved via denaturing 20% PAGE and visualized by Typhoon PhosphorImager. Percent primer extension by single ddCMP addition at each time point was calculated from % extension of the prime-template which was determined using ImageJ software.

Polθ-pol = molecular target: T2, Polθ-pol (Homo sapiens, UniProt O75417); assay: Primer extension by recombinant Pols (selectivity); format: biochemical
T2 construct: purified recombinant human Polθ-pol (comprising amino acid residues 1792–2590); made in house
T2 sequence (O75417 1792-2590): T1 sequence (O75417 1792-2590)

Polε = assay: Primer extension by recombinant Pols (selectivity); format: biochemical
[1] = Colony survival, ola with or without RTX-161 (source data sheet Fig. 2 c; cell line not given); format: cell-based
[2] = selectivity panel, Pol named in Supplementary Fig. 1h

CN(C(=O)Oc1c(N2CCN(CCO)C2=O)cc(C(F)(F)F)cc1C(F)(F)F)c1ccc(F)cc1 [RTx-161]
% Full Extension (Polα; Pol Alpha): 84.67%
% Inhibition Compared to Control (Polα; Pol Alpha): -1.20%
% Relative Maximum Extension (Polα; Pol Alpha): 101.20%
inhibition of primer extension (Polα; [2]): no inhibition
inhibition of single nucleotide incorporation on DNA/RNA (Polθ-pol on DNA/RNA; 2 μM RTx-161, open conformation): failed to significantly inhibit
Average % Extension (Single nt) (Polθ-pol on DNA/RNA; Time 0): 0.00%
% Extension (Single nt) (Polθ-pol on DNA/RNA; Time 0): 0.00%
Average % Extension (Single nt) (Polθ-pol on DNA/RNA; Time 5): 4.59%
% Extension (Single nt) (Polθ-pol on DNA/RNA; Time 5): 2.50% and 5.50% and 5.76%
Average % Extension (Single nt) (Polθ-pol on DNA/RNA; Time 10): 7.95%
% Extension (Single nt) (Polθ-pol on DNA/RNA; Time 10): 4.80% and 9.47% and 9.59%
Average % Extension (Single nt) (Polθ-pol on DNA/RNA; Time 20): 16.13%
% Extension (Single nt) (Polθ-pol on DNA/RNA; Time 20): 15.85% and 16.30% and 16.24%
Average % Extension (Single nt) (Polθ-pol on DNA/RNA; Time 40): 27.98%
% Extension (Single nt) (Polθ-pol on DNA/RNA; Time 40): 29.57% and 26.15% and 28.23%
% Extension of Control (Polθ-pol on DNA/RNA; Time 5): 47.30% and 65.75% and 74.39%
% Extension of Control (Polθ-pol on DNA/RNA; Time 10): 39.83% and 67.79% and 72.59%
% Extension of Control (Polθ-pol on DNA/RNA; Time 20): 72.60% and 71.13% and 71.98%
% Extension of Control (Polθ-pol on DNA/RNA; Time 40): 79.52% and 73.56% and 82.47%
% Full Extension (Polθ-pol; Pol Theta): 14.28%
% Inhibition Compared to Control (Polθ-pol; Pol Theta): 85.17%
% Relative Maximum Extension (Polθ-pol; Pol Theta): 14.83%
inhibition of primer extension (Polθ-pol; selectivity panel): selective inhibition
% Full Extension (Polε; Pol Epsilon): 91.14%
% Inhibition Compared to Control (Polε; Pol Epsilon): -0.19%
% Relative Maximum Extension (Polε; Pol Epsilon): 100.19%
inhibition of primer extension (Polε; [2]): no inhibition
percent suvival ([1]; RTX-161 1 uM + ola 0.125 um): 37.2624% and 27.7457% and 32.5843%
percent suvival ([1]; RTX-161 1 uM + ola 0.25 um): 11.4068% and 11.5607% and 13.4831%
percent suvival ([1]; RTX-161 1 uM, ola 0 um): 93.9163% and 101.156% and 103.371%
percent suvival ([1]; RTX-161 2 uM, ola 0 um): 93.5361% and 104.624% and 106.742%
